Experimental data from patent publication US9359279B2, “Treatment of cancer, inflammatory disease, and autoimmune disease” (AndroScience Corporation, priority 2010, dated 2016).
Where a name gives a salt, the structure may show the parent alone.

Tests used:
[1] = system: MRG (MgcRacGAP); assay: Western blot analysis of MRG protein in KT-3 cells; assay type: cell-based, human; details: KT-3 cells, 1, 5, or 20 μM, 0.5-6 hours
Procedure: (§1) Western Blot Analysis of MRG, STAT1, STAT3, and STAT5 Proteins in KT-3 Cells
(§2) Western Blot analysis was performed as described in Kawashima et al., J. Immunol. 2001, 167:3652-3660, with minor modifications. Briefly, KT-3 cells were treated with 1, 5, or 20 μM of compound 6 or vehicle alone in the above described IL-6-containing medium. At various time points after incubation (i.e., 0.5, 1, 3, and 6 hours after the treatment), cells were harvested and lysed using a lysis buffer (1.0% Triton X-100, 50 mM Tris-HCl (pH 7.5), 0.1 mM EDTA, 150 mM NaCl, 200 μM Na3VO4, 50 mM NaF, 1 mM dithiothreitol, 0.4 mM phenylmethylsulfonyl fluoride, 3 μg/ml of aprotinin, 2 μg/ml of pepstatin A, 1 μg/ml of leupeptin) at 2×10^7 cells/ml on ice for 30 min. Cell lysates were harvested by centrifugation at 12,000×g for 15 min. The samples (1×10^5 cell equivalent/lane) were subjected to sodium dodecyl sulfate-polyacrylamide gel electrophoresis and subsequently transferred onto Immobilon filters (Millipore). After blocked with 5% BSA, the filter was probed with anti-pSTAT3, STAT3, STAT5, STAT1, MRG or Actin Abs. The rabbit polyclonal anti-STAT3, anti-STAT5, anti-STAT1, and anti-Actin antibodies (Abs), and mouse monoclonal anti-pSTAT3 Ab (B-7) were obtained from Santa Cruz Biotechnology. Affinity purified anti-MRG Ab was prepared as described previously in Hirose et al., J. Biol. Chem. 276:5821-5828. […]

[2] = system: STAT5; assay: Western blot analysis of STAT5 protein in KT-3 cells; assay type: cell-based, human; details: KT-3 cells, 1, 5, or 20 μM, 0.5-6 hours
Procedure: as §1, §2

[3] = system: various human tumor cell lines (HCT116, HT29, SW480, SW620, Colo205, PC-3, Dul145, CWR22RV, LNCap, NCI-H1299, A549, NCI-H460, MDA-MB-453, T-47D, MCF7, Huh-7 …); assay: Inhibition of growth of various human tumor cell lines (MTT); assay type: cell-based; details: 0 to 5 μM, 72 h
Procedure: (§3) Inhibition of Growth of Various Human Tumor Cell Lines
(§4) The inhibitory effects of Compound 6 were determined as described below on the growth of colon cancer cells (HCT116, HT29, SW480, and SW620), colon adenocarcinoma cells (Colo205), prostate adenocarcinoma cells (PC-3 and Dul145), prostate carcinoma cells (CWR22RV and LNCap), non-small cell lung carcinoma cells (NCI-H1299), lung adnocarcinoma cells (A549), large cell lung carcinoma cells (NCI-H460), breast metastatic carcinoma cells (MDA-MB-453), breast ductal carcinoma cells (T-47D), breast adnocarcinoma cells (MCF7), hepatocellular carcinoma cells (Huh-7 and HepG2), pancreatic carcinoma cells (PANC-1), cervix adnocarcinoma cells (Hela), IL-6-dependent Lennert's T-cell lymphoma cells (KT-3), IL-6-dependent multiple myeloma cells (INA-6), multiple myeloma cells (KMM-1 and U266), myeloid leukemia cells (HL-60), and T-cell leukemia cells (Jurkat). […] The viability of the tumor cells was then assessed using the tetrazolium-based calorimetric assay (MTT) as described in Su et al., J Mol Cell Cardiol. […] The resultant formazan crystals were solubilized with MTT lysis buffer (50% DMF, 24 mM HCl, 2% Acetic Acid, 5% SDS) and the absorbance at 595 nm was measured using a Benchmark microplate reader (BIO-RAD, Hercules, Calif.). […]

[4] = as above; assay type: cell-based; details: Homo sapiens, range over all tumor cell lines tested, 72 h, read-out: IC50 values, growth of all tumor cells tested
Procedure: as §3, §4

[5] = system: HCT-116 cells; assay: Human colon cancer (HCT-116) mouse xenograft model; assay type: in vivo; details: athymic nude mice, HCT-116 xenograft, 40 mg/kg i.p. daily, days 0-4 and 7-10
Procedure: Inhibitory Effect on Human Colon Cancer (HCT-116) in a Mouse Xenograft Model
The in vivo experiments were carried out under an Institutional Animal Care and Use Committee-approved protocol and followed Institutional guidelines for proper and humane use of animals in research. Six-week-old female athymic nude mice were purchased from the Harlan Laboratory. Each of eight mice was injected subcutaneously with 1×10^6 HCT-116 cells mixed with Matrigel (BD Bioscience) at the left flank. After injection, tumors were allowed to grow for 5 days into a palpable size (volume ˜100 mm^3) before treatment. Mice were randomized into two groups (n=4 per group). The control group was injected with a vehicle solution only (i.e., 10% DMSO and 90% corn oil), while the experimental group received a daily injection (i.p.) of compound 6 (at a dose of 40 mg/kg body weight, dissolved in the vehicle solution) from days 0 (the initiation day of injection) to 4 and from days 7 to 10. The sizes of tumors were measured twice a week using a Vernier caliper and calculated using the following formula: length×width×height×0.5236, as described in Rockwell et al., J Natl. Cancer Inst. 1972; 49:735-747.

[6] = system: pSTAT3; assay: Western blot analysis of STAT3 phosphorylation (pSTAT3) in KT-3 cells; assay type: cell-based, human; details: KT-3 cells, 1, 5, or 20 μM, 0.5-6 hours
Procedure: as §1, §2

[7] = system: human Lennert's T cell lymphoma KT-3 cells; assay: Inhibition of IL-6-induced proliferation of KT-3 cells (CellTiter Glo viability); assay type: cell-based; details: read-out: IC50 (the concentration at which a compound suppresses cell growth by 50%), hIL-6 2.5 ng/ml, 48 hours
Procedure: Inhibitory Effects on Proliferation of Human Lernert's T Cell Lymphoma KT-3
Inhibitory effects of compounds of this invention on the growth of human Lennert's T cell lymphoma KT-3 cells, an IL-6-dependent cell line, were determined as described below. […] To experimental wells, test compounds at various concentrations (in triplicates) were added immediately after the cells were plated. To the control wells, an equal volume of vehicle, DMSO (0.1% v/v), was added. After incubating the cells with the compounds or in vehicle for 48 hours, cell viability was assessed using a CellTiter Glo Luminescent Cell Viability Assay Kit (Promega, Madison, Wis.). The resultant luminescence was quantified using Microplate Luminometer LB96V (EG&G BERTH HOLD) according to the manufacturer's protocol. The cell surviving rate was calculated by dividing the luminescence value of compound-treated cells with that of vehicle-treated cells.

[8] = system: STAT3; assay: Western blot analysis of STAT3 protein in KT-3 cells; assay type: cell-based, human; details: KT-3 cells, 1, 5, or 20 μM, 0.5-6 hours
Procedure: as §1, §2

[9] = system: STAT1; assay: Western blot analysis of STAT1 protein in KT-3 cells; assay type: cell-based, human; details: KT-3 cells, 1, 5, or 20 μM, 0.5-6 hours
Procedure: as §1, §2

Compound | melting point [°C] | IC50 [7] [nM] | other results
CCN(CC)CCOc1cccc(/C=C/C(=O)/C=C/c2cccc(O)c2)c1 (as salt: succinic acid salt) [Compound 47] | 104 to 106 | – | –
CCS(=O)(=O)Oc1cccc(/C=C/C(=O)/C=C/c2cccc(OS(=O)(=O)CC)c2)c1 [Compound 6] | – | ≤ 50 | MRG protein level [1]: down-regulated; STAT5 protein level [2]: down-regulated; inhibitory effects on the growth of all tumor cells tested [3]: dose-dependent inhibitory effects; IC50 [4]: 20 to 5500 nM; human colon cancer growth (tumor size) [5]: inhibited human colon cancer growth; phosphorylation of STAT3 protein [6]: inhibited phosphorylation; STAT3 protein level [8]: down-regulated; expression of STAT1 [9]: no effect
O=C1/C(=C/c2cccc(O)c2)CN(C(=O)C2CC2)C/C1=C\c1cccc(O)c1 [Compound 16] | – | ≤ 50 | –
CCP(=O)(CC)Oc1cccc(/C=C/C(=O)/C=C/c2cccc(OP(=O)(CC)CC)c2)c1 [Compound 18] | – | ≤ 50 | –
CCN(CC)CCOc1cccc(/C=C/C(=O)/C=C/c2cccc(O)c2)c1 [Compound 19] | – | ≤ 50 | –
CCS(=O)(=O)Oc1cccc(/C=C/C(=O)/C=C/c2cccc(OS(=O)(=O)CC)c2OS(=O)(=O)CC)c1 [Compound 26] | – | ≤ 50 | –
CCS(=O)(=O)Oc1cccc(/C=C/C(=O)/C=C/c2cc(OS(=O)(=O)CC)cc(OS(=O)(=O)CC)c2)c1 [Compound 27] | – | ≤ 50 | –
CCN(CC)CCOc1cccc(/C=C/C(=O)/C=C/c2cccc(O)c2O)c1 [Compound 35] | – | ≤ 50 | –
CCN(CC)CCOc1cccc(/C=C/C(=O)/C=C/c2cccc(OCCN(CC)CC)c2O)c1 [Compound 36] | – | ≤ 50 | –
COc1ccc(/C=C/C(=O)/C=C/c2cccc(O)c2)cc1OC [Compound 38] | 159 to 160 | – | –
COc1ccc(/C=C/C(=O)/C=C/c2cccc(O)c2)cc1 [Compound 39] | 152 to 153 | – | –
O=C(/C=C/c1cccc(O)c1)/C=C/c1cccc(C(F)(F)F)c1 [Compound 41] | 138 to 139 | – | –
O=C(/C=C/c1cccc(O)c1)/C=C/c1ccccc1F [Compound 42] | 159 to 160 | – | –
CCS(=O)(=O)Oc1cccc(/C=C/C(=O)/C=C/c2ccc(OS(=O)(=O)CC)c(OS(=O)(=O)CC)c2)c1 [Compound 43] | 102 to 103 | – | –
CCN(CC)CCOc1cccc(/C=C2\CN(C(=O)C3CC3)C/C(=C\c3cccc(O)c3)C2=O)c1 [Compound 45] | – | ≤ 50 | –
CCN(CC)CCOc1cccc(/C=C2\CN(C(=O)C3CC3)C/C(=C\c3cccc(OCCN(CC)CC)c3)C2=O)c1 [Compound 46] | – | ≤ 50 | –
O=C(/C=C/c1cccc(O)c1)/C=C/c1cccc(OCCCN2CCCCC2)c1 [Compound 56] | – | ≤ 50 | –
O=C(/C=C/c1cccc(O)c1)/C=C/c1cccc(OCCN2CCCCC2)c1 [Compound 57] | – | ≤ 50 | –
